In PubChem BioAssay AID248 (DTP/NCI, 2004):
Values joined by “and” are separate entries in the source; they are usually repeats but may differ in a detail not shown here. Identical values can stand only once. Inconclusive results and toxic doses are left out. No stated cut-off is given here; in the data, active means T/C of 150% or more; inactive means T/C below 125%.

System: L1210 leukemia ip in BDF1 mice, survival T/C
Assay: NCI In Vivo Anticancer Drug Screen. Data for tumor model L1210 Leukemia (intraperitoneal) in B6D2F1 (BDF1) mice
Conditions: endpoint: mean survival time, higher = longer survival
In short: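 Transplanted-tumor mice were given test agent; controls received vehicle only. Survival readings from the two groups were divided (treated over control).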

[1] = dose: 12.5 mg/kg/injection, schedule: Q01DX009 (ip), vehicle: saline with Tween-80
[2] = dose: 25.0 mg/kg/injection, schedule: Q01DX009 (ip), vehicle: saline with Tween-80
[3] = dose: 100.0 mg/kg/injection, schedule: Q01DX001 (ip), vehicle: saline with Tween-80
[4] = dose: 200.0 mg/kg/injection, schedule: Q01DX001 (ip), vehicle: saline with Tween-80
[5] = dose: 400.0 mg/kg/injection, schedule: Q01DX001 (ip), vehicle: saline with Tween-80
[6] = dose: 400.0 mg/kg/injection, schedule: Q01DX009 (ip), vehicle: saline with Tween-80
[7] = dose: 100.0 mg/kg/injection, schedule: Q01DX009 (ip), vehicle: Klucel (hydroxypropylcellulose) (HPC)
[8] = dose: 100.0 mg/kg/injection, schedule: Q04DX003 (ip), vehicle: Klucel (hydroxypropylcellulose) (HPC)
[9] = dose: 200.0 mg/kg/injection, schedule: Q01DX009 (ip), vehicle: Klucel (hydroxypropylcellulose) (HPC)
[10] = dose: 200.0 mg/kg/injection, schedule: Q04DX003 (ip), vehicle: Klucel (hydroxypropylcellulose) (HPC)
[11] = dose: 400.0 mg/kg/injection, schedule: Q01DX009 (ip), vehicle: Klucel (hydroxypropylcellulose) (HPC)
[12] = dose: 400.0 mg/kg/injection, schedule: Q04DX003 (ip), vehicle: Klucel (hydroxypropylcellulose) (HPC)
[13] = dose: 100.0 mg/kg/injection, schedule: Q01DX001 (ip), vehicle: saline
[14] = dose: 200.0 mg/kg/injection, schedule: Q01DX001 (ip), vehicle: saline
[15] = dose: 400.0 mg/kg/injection, schedule: Q01DX001 (ip), vehicle: saline
[16] = dose: 50.0 mg/kg/injection, schedule: Q01DX001 (ip), vehicle: Klucel (hydroxypropylcellulose) (HPC)
[17] = dose: 100.0 mg/kg/injection, schedule: Q01DX001 (ip), vehicle: Klucel (hydroxypropylcellulose) (HPC)
[18] = dose: 200.0 mg/kg/injection, schedule: Q01DX001 (ip), vehicle: Klucel (hydroxypropylcellulose) (HPC)

Measured: T/C

O=C(Nc1ccc(Cl)cc1)O/N=C/c1ccccn1
inactive: [1] 111 % of control | [2] 97 % of control | dose: 50.0 mg/kg/injection, schedule: Q01DX009 (ip), vehicle: saline with Tween-80 94 % of control | [3] 97 % of control | [4] 109 % of control | [5] 101 % of control | [6] 88 % of control

CCCCCCCCC(CCCCCCCC)C1CCCCC1
inactive: [3] 98 % of control | [4] 95 % of control | [5] 93 % of control

NC(CSCc1ccccc1)C(=O)OCc1ccccc1 (stereo unspecified)
inactive: [7] 98 % of control | [8] 100 % of control | [9] 92 % of control | [10] 89 % of control | [11] 95 % of control | [12] 96 % of control

O=[N+]([O-])c1ccc(/C=C/c2ccccc2)c([N+](=O)[O-])c1
inactive: [8] 104 % of control | [10] 98 % of control | [12] 101 % of control

O=C(NCc1ccccc1)Sc1ccccc1
inactive: dose: 87.5 mg/kg/injection, schedule: Q01DX001 (ip), vehicle: Klucel (hydroxypropylcellulose) (HPC) 96 % of control

Cn1c(=O)c2ncn(CC(O)COc3ccccc3)c2n(C)c1=O (stereo unspecified)
inactive: [8] 102 % of control | [10] 104 % of control | [12] 101 % of control

O=C(O)CC1(CC(=O)O)C(=O)N(c2ccccc2)c2ccccc21
inactive: [3] 95 % of control | [4] 90 % of control | [5] 97 % of control

O=C1C=C(c2ccccc2)S(=O)(=O)C(c2ccccc2)=C1
inactive: dose: 37.5 mg/kg/injection, schedule: Q04DX002 (ip), vehicle: Klucel (hydroxypropylcellulose) (HPC) 97 % of control | dose: 75.0 mg/kg/injection, schedule: Q01DX001 (ip), vehicle: carboxymethylcellulose (CMC) 124 % of control | dose: 75.0 mg/kg/injection, schedule: Q04DX002 (ip), vehicle: Klucel (hydroxypropylcellulose) (HPC) 108 % of control | dose: 150.0 mg/kg/injection, schedule: Q04DX002 (ip), vehicle: Klucel (hydroxypropylcellulose) (HPC) 101 % of control

OC1COC(c2ccccc2)OC1C(O)C1OC(c2ccccc2)OCC1O (stereo unspecified)
inactive: dose: 100.0 mg/kg/injection, schedule: Q04DX002 (ip), vehicle: saline with Tween-80 89 % of control | dose: 200.0 mg/kg/injection, schedule: Q04DX002 (ip), vehicle: saline with Tween-80 105 % of control | dose: 400.0 mg/kg/injection, schedule: Q04DX002 (ip), vehicle: saline with Tween-80 102 % of control

CC1CCOC1=O (stereo unspecified)
inactive: dose: 50.0 mg/kg/injection, schedule: Q01DX001 (ip), vehicle: saline 96 % of control | [13] 107 % of control | [14] 105 % of control | [15] 96 % of control

O=C(CC(=O)C(F)(F)F)c1ccccc1.O=C(CC(=O)C(F)(F)F)c1ccccc1.[Cu]
inactive: dose: 6.25 mg/kg/injection, schedule: Q01DX009 (ip), vehicle: saline with Tween-80 95 % of control | dose: 6.25 mg/kg/injection, schedule: Q04DX003 (ip), vehicle: saline with Tween-80 91 % of control | [1] 95 % of control | dose: 12.5 mg/kg/injection, schedule: Q04DX003 (ip), vehicle: saline with Tween-80 92 % of control | [2] 92 % of control | dose: 25.0 mg/kg/injection, schedule: Q04DX003 (ip), vehicle: saline with Tween-80 91 % of control

O=C(O)C(Cl)(c1ccccc1)c1ccccc1
inactive: dose: 75.0 mg/kg/injection, schedule: Q01DX001 (ip), vehicle: other 94 % of control | dose: 150.0 mg/kg/injection, schedule: Q01DX001 (ip), vehicle: other 101 % of control | dose: 300.0 mg/kg/injection, schedule: Q01DX001 (ip), vehicle: other 100 % of control

CCOC(=O)c1c[nH]c2ccc([N+](=O)[O-])cc2c1=O
inactive: dose: 25.0 mg/kg/injection, schedule: Q01DX001 (ip), vehicle: Klucel (hydroxypropylcellulose) (HPC) 97 % of control | [16] 97 % of control | [17] 97 % of control

O=[N+]([O-])c1cc([N+](=O)[O-])c(NN(c2ccccc2)c2ccccc2)c([N+](=O)[O-])c1
inactive: dose: 12.5 mg/kg/injection, schedule: Q01DX Z (ip), vehicle: other 106 % of control | dose: 25.0 mg/kg/injection, schedule: Q01DX Z (ip), vehicle: other 102 % of control | [8] 92 % of control | [10] 88 % of control | [12] 91 % of control

O=C(Nc1cccc(Cl)c1Cl)N(Cc1ccccc1)Cc1ccccc1
inactive: [7] 108 % of control | [9] 97 % of control | [11] 101 % of control

O=c1[nH]n(-c2ccccc2)c(=O)c2ccccc12
inactive: [17] 110 % of control and 102 % of control | [18] 100 % of control and 94 % of control | dose: 400.0 mg/kg/injection, schedule: Q01DX001 (ip), vehicle: Klucel (hydroxypropylcellulose) (HPC) 100 % of control and 104 % of control

CC(=O)Nc1nc(/C=C/C(=O)CCl)c(CCCCc2ccccc2)c(=O)[nH]1
inactive: [16] 93 % of control | [17] 102 % of control | [18] 96 % of control

CC(=O)OCCc1nnnn1C
inactive: [13] 108 % of control | [14] 104 % of control | [15] 103 % of control

CCCCC(CC)CC1CCCCC1O (stereo unspecified)
inactive: [7] 95 % of control | [8] 97 % of control | [9] 93 % of control | [10] 96 % of control | [12] 96 % of control

O=[N+]([O-])c1ccc(N=C/C=C/c2ccccc2)cc1
inactive: dose: 100.0 mg/kg/injection, schedule: Q01DX009 (ip), vehicle: saline with Tween-80 88 % of control | dose: 200.0 mg/kg/injection, schedule: Q01DX009 (ip), vehicle: saline with Tween-80 94 % of control | [6] 104 % of control

Nc1cccc2c1[nH]c(=O)c1ccccc12
inactive: dose: 100.0 mg/kg/injection, schedule: Q01DX001 (ip), vehicle: carboxymethylcellulose (CMC) 95 % of control | dose: 200.0 mg/kg/injection, schedule: Q01DX001 (ip), vehicle: carboxymethylcellulose (CMC) 97 % of control | dose: 400.0 mg/kg/injection, schedule: Q01DX001 (ip), vehicle: carboxymethylcellulose (CMC) 97 % of control

COC1OC(COS(C)(=O)=O)C(OS(C)(=O)=O)C(OC(=O)c2ccccc2)C1OC(=O)c1ccccc1 (stereo unspecified)
inactive: dose: 100.0 mg/kg/injection, schedule: Q04DX002 (ip), vehicle: Klucel (hydroxypropylcellulose) (HPC) 109 % of control | dose: 200.0 mg/kg/injection, schedule: Q04DX002 (ip), vehicle: Klucel (hydroxypropylcellulose) (HPC) 101 % of control | dose: 400.0 mg/kg/injection, schedule: Q04DX002 (ip), vehicle: Klucel (hydroxypropylcellulose) (HPC) 101 % of control

CCCCN(CCCC)C(=N)c1c(C)cc(C)cc1C
inactive: dose: 2.5 mg/kg/injection, schedule: Q01DX001 (ip), vehicle: saline 101 % of control | dose: 5.0 mg/kg/injection, schedule: Q01DX001 (ip), vehicle: saline 105 % of control and 106 % of control and 108 % of control | dose: 7.0 mg/kg/injection, schedule: Q01DX001 (ip), vehicle: saline 94 % of control and 104 % of control | dose: 10.0 mg/kg/injection, schedule: Q01DX001 (ip), vehicle: saline 98 % of control and 101 % of control and 110 % of control | dose: 15.0 mg/kg/injection, schedule: Q01DX001 (ip), vehicle: saline 102 % of control and 104 % of control

c1ccc2c(c1)NC1(CCCCC1)S2
inactive: [7] 99 % of control | [8] 104 % of control | [9] 99 % of control | [10] 91 % of control | [11] 91 % of control | [12] 93 % of control
